Reference: US20250154154A1 (Relay Binney Street, 2nd Floor, priority 2020, published 2025)

Key:
RBE cells = assay: Cell Viability Protocol (CellTiterGlo), RBE cells; format: cell-based; conditions: RBE or SNU-1079 cells, 72 or 120 hour, cell line and time not given
Method: RBE or SNU-1079 cells were cultured in T-75 or T-175 flasks at 37° C., 5% CO2, 95% relative humidity in RPMI 1640 medium with 10% FBS and 1% Penicillin/Streptomycin (media) and detached with 0.25% trypsin/EDTA at 80-90% confluency. Cells were then seeded in 40 μL media per well in 384-well flat-bottom polystyrene microplates (Corning Cat. No. 3570) at a seeding density of 1200 cells/well and incubated for 24 hours at 37° C. with 5% CO2, 95% relative humidity. On the next day, test compounds were prepared in 10 mM DMSO stock solution and diluted to the indicated concentrations in a 384-well compound source plate. DMSO was employed as a vehicle control. Compounds (40 nL) were transferred to 384-well cell culture plate(s) using the liquid handler Echo550. Plates were incubated at 37° C. with 5% CO2 for 72 hour or 120 hour (as indicated). CellTiterGlo reagent was warmed to 37° C. and added into each well (40 μL per well). Plates were incubated at room temperature for 30 min followed by reading on the EnSpire or EnVision plate reader. Relative viability (% remaining activity) was calculated relative to DMSO control and IC50 values were obtained from dose-response data fitted to a 4-parameter curve.

SRC = SRC (Homo sapiens, UniProt P12931); assay: SRC Biochemical Assay Protocol (microfluidic mobility shift assay, FLPeptide4 substrate)
Outline: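 Mobility-shift readout of phosphorylated FLPeptide4 (1.5 μM) after 90 min kinase reaction with 50 μM ATP and 0.26 nM SRC in pH 7.4 HEPES buffer. Compounds, tested 0.0017–100 μM, were preincubated 30 min with enzyme and peptide; IC50 from 4-parameter logistic fit versus neutral controls.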

Sequence of SRC (P12931 whole entry, species assumed): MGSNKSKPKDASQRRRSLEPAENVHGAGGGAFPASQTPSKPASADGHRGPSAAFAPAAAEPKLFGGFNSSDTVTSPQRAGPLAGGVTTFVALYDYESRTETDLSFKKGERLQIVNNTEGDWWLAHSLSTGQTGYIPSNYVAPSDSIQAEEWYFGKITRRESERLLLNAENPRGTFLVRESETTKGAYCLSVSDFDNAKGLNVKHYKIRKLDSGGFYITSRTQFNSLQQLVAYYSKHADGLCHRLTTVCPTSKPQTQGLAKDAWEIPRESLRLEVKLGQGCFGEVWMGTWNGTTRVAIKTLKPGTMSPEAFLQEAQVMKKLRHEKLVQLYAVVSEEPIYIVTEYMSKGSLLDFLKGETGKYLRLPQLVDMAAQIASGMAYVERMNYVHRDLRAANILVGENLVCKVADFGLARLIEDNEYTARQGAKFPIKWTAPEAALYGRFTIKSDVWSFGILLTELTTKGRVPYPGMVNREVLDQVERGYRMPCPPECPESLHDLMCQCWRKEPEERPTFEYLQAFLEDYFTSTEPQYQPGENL

Row | SMILES | IC50 (SRC) [µM] | IC50 (RBE cells) [µM]
1 | C=CC(=O)N1CCC(C#Cc2c(-c3ccc(Oc4ccccc4)cc3)c3c(N)ncnc3n2C(C)c2ncon2)CC1 (stereo not shown) [Example I-59] | 0.01 to 1 | 0.01 to 1
2 | C=CC(=O)N1CCC(C#Cc2cn3ncnc(N)c3c2-c2ccc(Oc3ccccc3)cc2)CC1 [Example I-64] | 0.01 to 1 | 1 to 10
3 | CC(C)n1c(C#CC2CCN(C(=O)/C=C/CN(C)C)CC2)c(-c2ccc(Oc3ccccc3)cc2)c2c(N)ncnc21 [Example I-48, (E)-1-(4-((4-amino-7-isopropyl-5-(4-phenoxyphenyl)-7H-pyrrolo[2,3-d]pyrimidin-6-yl)ethynyl)piperidin-1-yl)-4-(dimethylamino)but-2-en-1-one] | 0.01 to 1 | 0.01 to 1
4 | C=CC(=O)N1CCC(C#Cc2c(-c3ccc(Oc4ccccc4)cc3)c3c(N)ncnc3n2C(C)C)CC1 [Example I-8, 1-(4-((4-amino-7-isopropyl-5-(4-phenoxyphenyl)-7H-pyrrolo[2,3-d]pyrimidin-6-yl)ethynyl)piperidin-1-yl)prop-2-en-1-one] | 0.01 to 1 | 0.01 to 1
5 | CC(C)n1c(C#CC2CCN(C(=O)CCl)CC2)c(-c2ccc(Oc3ccccc3)cc2)c2c(N)ncnc21 [Example I-29] | 0.01 to 1 | 0.01 to 1
6 | C=CC(=O)N1CCC(O)(C#Cc2c(-c3ccc(Oc4ccccc4)cc3)c3c(N)ncnc3n2C2CCOC2)CC1 (stereo not shown) [Example I-70] | ≤ 0.01 | ≤ 0.01
7 | C=CC(=O)N1CCC(C#Cc2c(-c3ccc(Oc4ccccc4)cc3)c3c(N)ncnc3n2C2CCCNC2)CC1 (stereo not shown) [Example I-60] | 0.01 to 1 | 0.01 to 1

More lines, main results first:

Row | IC50 (SRC) [µM] | SMILES | IC50 (RBE cells) [µM]
8 | 0.01 to 1 | COCCN(C)C/C=C/C(=O)N1C[C@@H]2[C@@H](C#Cc3c(-c4ccc(Oc5ccccc5)cc4)c4c(N)ncnc4n3C)[C@@H]2C1 [II-224, (E)-1-((1R,5S,6s)-6-((4-amino-7-methyl-5-(4-phenoxyphenyl)-7H-pyrrolo[2,3-d]pyrimidin-6-yl)ethynyl)-3-azabicyclo[3.1.0]hexan-3-yl)-4-((2-methoxyethyl) (methyl)amino)but-2-en-1-one] | 0.01 to 1
9 | 0.01 to 1 | COc1cc(Oc2cccc(C)n2)ccc1-c1c(C#C[C@@H]2[C@H]3CN(C(=O)/C=C/CN4CCC(F)C4)C[C@@H]23)n(C)c2ncnc(N)c12 (stereo partly drawn) [II-236, (E)-1-((1R,5S,6s)-6-((4-amino-5-(2-methoxy-4-((6-methylpyridin-2-yl)oxy)phenyl)-7-methyl-7H-pyrrolo[2,3-d]pyrimidin-6-yl)ethynyl)-3-azabicyclo[3.1.0]hexan-3-yl)-4-(3-fluoropyrrolidin-1-yl)but-2-en-1-one] | 0.01 to 1
10 | 1 to 10 | C=CC(=O)N1C[C@@H]2[C@@H](C#Cc3c(Br)c4c(N)ncnc4n3C(C)C)[C@@H]2C1 [III-5] | 1 to 10
11 | ≤ 0.01 | CC(C)n1c(C#CC2CCC(C(=O)O)CC2)c(-c2ccc(Oc3ccccc3)cc2)c2c(N)ncnc21 (stereo not shown) [II-138, 4-((4-amino-7-isopropyl-5-(4-phenoxyphenyl)-7H-pyrrolo[2,3-d]pyrimidin-6-yl)ethynyl) cyclohexanecarboxylic acid] | 0.01 to 1
12 | ≤ 0.01 | CC(CO)N1CCC(C#Cc2c(-c3ccc(Oc4ccccc4)cc3)c3c(N)ncnc3n2C(C)C)CC1 (stereo not shown) [II-146, 2-(4-((4-amino-7-isopropyl-5-(4-phenoxyphenyl)-7H-pyrrolo[2,3-d]pyrimidin-6-yl)ethynyl)piperidin-1-yl)propan-1-ol] | 0.01 to 1
13 | 0.01 to 1 | CC(C)n1c(C#CC2CCN(S(C)(=O)=O)CC2)c(-c2ccc(Oc3ccccc3)cc2)c2c(N)ncnc21 [II-140, 7-isopropyl-6-((1-(methylsulfonyl)piperidin-4-yl)ethynyl)-5-(4-phenoxyphenyl)-7H-pyrrolo[2,3-d]pyrimidin-4-amine] | 0.01 to 1
14 | ≤ 0.01 | CC(C)n1c(C#CC2CCNCC2)c(-c2ccc(Oc3ccccc3)cc2)c2c(N)ncnc21 [II-137, 7-isopropyl-5-(4-phenoxyphenyl)-6-(piperidin-4-ylethynyl)-7H-pyrrolo[2,3-d]pyrimidin-4-amine] | 1 to 10
